Experimental findings from patent US4689326A, “Process for controlling hyperlipidemia” (Research Corporation, priority 1985, dated 1987) are described below.

Where two headings read alike, the source gives them in different places.

Test [1] has as its target T1, Cholesterol-7 Hydroxylase (Mus musculus, UniProt Q64505).
T1 construct: 10% homogenates of CF1 male mouse liver; from tissue; host or cells: CF1 male mouse liver, 10% homogenate
The test can be described thus: In vitro enzyme activity, liver homogenate: cholesterol-7 hydroxylase. In kind it is biochemical, CF1 male mouse. The settings on record: ± SD, N = 6, read-out: Percent Control, in vitro enzyme activity. The method, then: (§1) In vitro enzymatic studies were undertaken using 10% homogenates of CF1 male mouse liver with […] of compound 3,4,5,6-dibenzohomopiperidine. In addition, in vivo enzymatic studies were performed, again using 10% liver homogenates (prepared in 0.25 M sucrose plus 0.001 M (ethylenedinitrilo)-tetraacetic acid, ph 7.25 from CF1 male mice obtained after administering 3,4,5,6-dibenzohomopiperidine for 16 days at a concentration ranging from 10 to 60 mg/kg/day, intraperitoneally.
(§2) The following enzyme activities were determined by following standard literature procedures: acetyl coenzyme synthetase; adenosine triphosphate dependent citrate lyase; mitochondrial citrate exchange; cholesterol/7 hydroxylase; 3-hydroxy-3-methyl-glutaryl coenzyme A reductase; acetyl coenzyme A carboxylase activity; fatty acid synthetase activity; sn-glycerol-3-phosphate acyl transferase activity; phosphatidate phosphohydrolase activity; cholesterol acyl transferase; and heparin activated hepatic lypoprotein lipase. Protein was determined for all enzyme assays by the Lowry et al. technique (J. Biol. Chem, 193, 265 (1951)).

In the next test the test system is HDL. The test is described as follows: Lipoprotein fractions in Rats, Example 11: HDL. Particulars: oral 20 mg/kg/day, fourteen days, ± SD. It counts as in vivo, Sprague Dawley male rats. The method, then: A group of six Sprague Dawley male rats were treated with 20 mg/kg/day of 3,4,5,6-dibenzohomopiperidine. The treatment was applied orally. An equal number of Sprague Dawley male rats, having approximately the same weight, were utilized as an untreated control. At the end of fourteen days the control and treated rats were sacrificed. Blood was collected from the abdominal aorta and lipoprotein fractions were obtained by the method of Hatch and Lees [Adv. Lipid Rees., 6, 1 (1968)] and Havel et al. [J. Clin Invest., 34, 1345 (1955)]. Each of the fractions were analyzed for cholesterol, triglycerides, neutral lipids, phospholipids and protein levels.

Test [2] deals with T2, Acyl CoA Cholesterol Acyl (Mus musculus, UniProt O88908).
T2 construct: 10% homogenates of CF1 male mouse liver; from tissue; host or cells: CF1 male mouse liver, 10% homogenate
T2 sequence (O88908 1-525): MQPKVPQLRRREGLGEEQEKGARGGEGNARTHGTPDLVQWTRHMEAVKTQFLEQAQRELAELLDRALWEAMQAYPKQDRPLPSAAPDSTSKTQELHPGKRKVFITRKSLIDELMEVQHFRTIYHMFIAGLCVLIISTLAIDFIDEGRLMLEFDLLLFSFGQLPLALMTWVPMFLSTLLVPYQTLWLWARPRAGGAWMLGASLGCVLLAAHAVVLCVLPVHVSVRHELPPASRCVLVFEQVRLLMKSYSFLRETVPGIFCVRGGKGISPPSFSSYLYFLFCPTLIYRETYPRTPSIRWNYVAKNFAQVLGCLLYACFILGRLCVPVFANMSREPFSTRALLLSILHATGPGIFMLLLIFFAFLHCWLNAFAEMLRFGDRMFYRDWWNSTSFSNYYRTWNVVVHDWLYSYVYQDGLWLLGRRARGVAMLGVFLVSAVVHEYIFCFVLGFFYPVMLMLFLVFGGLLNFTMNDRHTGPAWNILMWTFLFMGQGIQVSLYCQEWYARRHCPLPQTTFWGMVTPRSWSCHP
The test can be described thus: In vitro enzyme activity, liver homogenate: acyl CoA cholesterol acyl transferase. Particulars: ± SD, N = 6, read-out: Percent Control, in vitro enzyme activity. In kind it is biochemical, CF1 male mouse. How it is done:
as §1, §2

The test system of a further test is serum cholesterol. The test can be described thus: Testing of Normal Mice: serum cholesterol (modified Liebermann-Burchard), Example 7. In kind it is in vivo, CF1 male mice. Particulars: Mus musculus, 20 mg/kg/day ip. How it is done:
Suspensions of Compounds Nos. 1-9 were prepared wherein the compounds were suspended in an aqueous 1% carboxymethylcelluose solution, homogenized and administered to CF1 male mice, each weighing approximately 25 grams, intraperitoneally on a daily basis for 16 days. The dosage was, with the exception of one compound, 20 milligrams of the active compound per kilogram of mouse weight per day. On days 9 and 16 blood was obtained by tail vein bleeding. The blood serum was separated by centrifugation for three minutes. Serum cholesterol levels were determined by a modification of the Liebermann-Burchard reaction. Serum was also collected on day 16 and the triglycerides content was determined by a commercial kit, BioDynamics/bnc Single Vile Colorimetric Method 348201. Each compound was tested on a group of six mice.
In addition to the above-described treated mice, untreated control groups of six mice were similarly tested on days 9 and 14 or 16 to determine their serum cholesterol and triglycerides blood levels. Table 5 reports the percent control, based on the serum cholesterol and serum triglyceride levels of the treated mice compared to the untreated controls. Table 5 also includes the standard deviation indicating the level of confidence of these numbers.
Example 7 was repeated substituting clofibrate, a compound used in the prior art to lower serum cholesterol and serum triglyceride levels. The clofibrate was administered as a suspension in an aqueous 1% solution of carboxymethylcellulose. However, unlike the compounds of the present invention which were administered at a dosage of 20 mg/kg day, ip, this compound was administered at the elevated concentration of 150 mg/kg day, ip.

T1 sequence (Q64505 whole entry): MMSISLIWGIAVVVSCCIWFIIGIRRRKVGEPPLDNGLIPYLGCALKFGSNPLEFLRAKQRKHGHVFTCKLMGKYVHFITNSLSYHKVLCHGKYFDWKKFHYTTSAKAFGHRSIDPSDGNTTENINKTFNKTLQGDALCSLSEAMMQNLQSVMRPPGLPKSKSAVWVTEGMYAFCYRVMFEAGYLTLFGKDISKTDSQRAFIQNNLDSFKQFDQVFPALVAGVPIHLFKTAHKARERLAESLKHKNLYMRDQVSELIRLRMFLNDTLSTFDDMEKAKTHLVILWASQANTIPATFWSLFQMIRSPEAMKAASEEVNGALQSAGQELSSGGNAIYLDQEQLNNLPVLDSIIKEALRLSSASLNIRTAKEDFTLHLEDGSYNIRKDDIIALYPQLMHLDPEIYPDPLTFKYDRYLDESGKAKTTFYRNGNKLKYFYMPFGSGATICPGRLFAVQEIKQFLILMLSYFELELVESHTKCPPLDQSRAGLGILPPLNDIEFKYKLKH

Consider `c1ccc2c(c1)CNCc1ccccc1-2` [Compound 3, 3,4,5,6-dibenzohomopiperidine], for which the remaining activity at 50 µM in test [1] (50 μM) is 68 ± 7%. In addition, the remaining activity at 100 µM in test [1] (100 μM) amounted to 72 ± 5%. Moreover, the remaining activity at 200 µM in test [1] (200 μM) turned out to be 98 ± 7%. In the test on HDL, the “Cholesterol, concentration as a function of control” value came to 106 ± 5%; the “Neutral Lipids, concentration as a function of control” value is recorded as 59 ± 5%; the “Phospholipids, concentration as a function of control” value was 64 ± 3%; the “Protein, concentration as a function of control” value is reported as 106 ± 7%. Further, in the test with HDL, the “Triglycerides, concentration as a function of control” value is 40 ± 2%. Besides, the remaining activity at 50 µM in test [2] (50 μM) was 60 ± 6%. Moreover, the remaining activity at 100 µM in test [2] (100 μM) came to 59 ± 5%. The remaining activity at 200 µM in test [2] (200 μM) is 3 ± 1%. Moreover, the response vs control in vivo at 20 mg/kg in the test with serum cholesterol (216 h, day 9, ± SD, read-out: Serum Cholesterol Control, % Day 9) is 68 ± 4%. The response vs control in vivo at 20 mg/kg with serum cholesterol (384 h, day 16, ± SD, read-out: Serum Cholesterol Control, % Day 16) worked out at 48 ± 4%.
